Values after ≈ are worked out from the molar mass of the structure shown.
Assays:
[1] = Potentiometric titration profile (pH1/2 values); type: physicochemical; conditions: methylcellosolve:water 4:1, titration with 0.01N NaOH
[2] = Solubility (physico-chemical characteristics); type: physicochemical
[3] = system: Staplylococcus aureus Tour; assay: In vitro antibacterial activity, two-fold dilution MIC in microtiter system; type: cell-based, Staphylococcus aureus
Protocol: The in vitro antibacterial activity of L 17392 was determined using the two-fold dilution method in microtiter system. Todd-Hewitt broth (Difco) was used for streptococci and Isosensitest broth (Oxoid) for staphylococci and gram-negative bacteria. Overnight broth cultures were diluted so that the final inoculum was about 10^4 colony-forming units per ml (cfu/ml). […] The obtained results are reported in Table I below: | ^(a) Inoculum: 10^6 cfu/ml | ^(b) Determined in the presence of 30% bovine serum

[4] = system: clinical isolate methicillin-resistant staphylococci (S. aureus, S. epidermidis); assay: Antibacterial activity against methicillin-resistant staphylococci, in words; type: cell-based; conditions: various clinical isolates
Protocol: (§1) The in vitro antibacterial activity of L 17392 was determined using the two-fold dilution method in microtiter system. Todd-Hewitt broth (Difco) was used for streptococci and Isosensitest broth (Oxoid) for staphylococci and gram-negative bacteria. Overnight broth cultures were diluted so that the final inoculum was about 10^4 colony-forming units per ml (cfu/ml).

[5] = system: Staphylococcus aureus ATCC 6538; assay: In vitro antibacterial activity, two-fold dilution MIC in microtiter system; type: cell-based; conditions: Isosensitest broth, inoculum about 10^4 cfu/ml, 18-24 h at 37° C.
Protocol: as §1

[6] = system: Proteus vulgaris × 19 H ATCC 881; assay: as above; type: cell-based; conditions: Isosensitest broth, inoculum about 10^4 cfu/ml, 18-24 h at 37° C.
Protocol: as §1

[7] = system: Pseudomonas aeruginosa ATCC 10145; assay: as above; type: cell-based; conditions: Isosensitest broth, inoculum about 10^4 cfu/ml, 18-24 h at 37° C.
Protocol: as §1

[8] = system: Escherichia coli SKF 12140; assay: as above; type: cell-based; conditions: Isosensitest broth, inoculum about 10^4 cfu/ml, 18-24 h at 37° C.
Protocol: as §1

[9] = system: Streptococcus faecalis ATCC 7080; assay: as above; type: cell-based; conditions: Todd-Hewitt broth, inoculum about 10^4 cfu/ml, 18-24 h at 37° C.
Protocol: as §1

[10] = system: Streptococcus pneumoniae UC 41; assay: as above; type: cell-based; conditions: Todd-Hewitt broth, inoculum about 10^4 cfu/ml, 18-24 h at 37° C.
Protocol: as §1

[11] = system: Streptococcus pyogenes C 203; assay: as above; type: cell-based; conditions: Todd-Hewitt broth, inoculum about 10^4 cfu/ml, 18-24 h at 37° C.
Protocol: as §1

[12] = system: staphylocci (S. aureus, S. epidermidis); assay: Antibacterial activity against staphylococci, in words; type: cell-based
Protocol: as §1

[13] = system: Staphylococcus epieermidis ATCC 12228; assay: In vitro antibacterial activity, two-fold dilution MIC in microtiter system; type: cell-based, Staphylococcus epidermidis; conditions: Isosensitest broth, inoculum about 10^4 cfu/ml, 18-24 h at 37° C.
Protocol: as §1

S. aureus L 1096 = assay: MIC against clinical isolate methicillin-resistant staphylococci; type: cell-based
Protocol: as §1

S. epidermidis L 835 = assay: as above; type: cell-based
Protocol: as §1

S. epidermidis L 1372 = assay: as above; type: cell-based
Protocol: as §1

S. aureus L 1524 = assay: as above; type: cell-based
Protocol: as §1

S. aureus L 1097 = assay: as above; type: cell-based
Protocol: as §1

S. aureus L 1526 = assay: as above; type: cell-based
Protocol: as §1

S. epidermidis L 1378 = assay: as above; type: cell-based
Protocol: as §1

S. epidermidis L 785 = assay: as above; type: cell-based
Protocol: as §1

S. epidermidis L 1142 = assay: as above; type: cell-based
Protocol: as §1

[14] = pKa of a sample dissolved in methylcellosolve/water 4:1; type: physicochemical

CC(=O)N[C@@H]1[C@@H](O[C@H]2c3ccc(c(Cl)c3)Oc3cc4cc(c3O)Oc3ccc(cc3Cl)C[C@@H]3NC(=O)[C@@H](N)c5ccc(O)c(c5)Oc5cc(O)cc(c5)[C@@H](NC3=O)C(=O)N[C@@H]4C(=O)N[C@@H]3C(=O)N[C@H]2C(=O)N[C@@H](C(=O)O)c2cc(O)cc(O)c2-c2cc3ccc2O)O[C@@H](CO)[C@H](O)[C@H]1O (stereo in doubt) [antibiotic L 17046]
pH1/2 value, third titration slope ([1]; five equivalents): 11
pH1/2 value, first titration slope ([1]; one equivalent): 5.0
pH1/2 value, second titration slope ([1]; one equivalent): 7.0
solubility ([2]; dimethylformamide, dimethylsulfoxide, propyleneglycol and methylcellosolve): freely soluble
solubility ([2]; methanol): slightly soluble
solubility ([2]; n-hexane, ethyl ether and acetone): almost insoluble
solubility ([2]; water at pH>8.0): freely soluble

N[C@H]1C(=O)N[C@@H]2Cc3ccc(c(Cl)c3)Oc3cc4cc(c3O)Oc3ccc(cc3Cl)[C@@H](O)[C@@H]3NC(=O)[C@H](NC(=O)[C@@H]4NC(=O)[C@@H](NC2=O)c2cc(O)cc(c2)Oc2cc1ccc2O)c1ccc(O)c(c1)-c1c(O)cc(O)cc1[C@@H](C(=O)O)NC3=O [antibiotic L 17392, deglucoteicoplanin]
MIC ([3]; Determined in the presence of 30% bovine serum): 0.2 µg/mL
MIC ([3]; Inoculum: 10^6 cfu/ml): 0.2 µg/mL (≈ 0.167 µM)
MIC ([3]; Isosensitest broth, inoculum about 10^4 cfu/ml, 18-24 h at 37° C.): 0.05 µg/mL (≈ 0.0417 µM)
activity against methicillin-resistant staphylococci (in words) [4]: very effective
MIC [5]: 0.025 µg/mL (≈ 0.0209 µM)
MIC [6]: 50 µg/mL (≈ 41.7 µM)
MIC [7]: > 100 µg/mL
MIC [8]: 25 µg/mL (≈ 20.9 µM)
MIC [9]: 0.1 µg/mL (≈ 0.0834 µM)
MIC [10]: 0.05 µg/mL (≈ 0.0417 µM)
MIC [11]: 0.05 µg/mL (≈ 0.0417 µM)
activity against staphylococci (in words) [12]: very active
MIC [13]: 0.0125 µg/mL (≈ 0.0104 µM)
solubility ([2]; aqueous methanol, ethanol and acetone): soluble
solubility ([2]; ethyl alcohol and dimethylformamide): slightly soluble
solubility ([2]; water at a pH higher than 9): soluble
MIC (S. aureus L 1096): 0.05 µg/mL (≈ 0.0417 µM)
MIC (S. epidermidis L 835): 0.05 µg/mL (≈ 0.0417 µM)
MIC (S. epidermidis L 1372): 0.2 µg/mL (≈ 0.167 µM)
MIC (S. aureus L 1524): 0.1 µg/mL (≈ 0.0834 µM)
MIC (S. aureus L 1097): 0.05 µg/mL (≈ 0.0417 µM)
MIC (S. aureus L 1526): 0.05 µg/mL (≈ 0.0417 µM)
MIC (S. epidermidis L 1378): 0.05 µg/mL (≈ 0.0417 µM)
MIC (S. epidermidis L 785): 0.05 µg/mL (≈ 0.0417 µM)
MIC (S. epidermidis L 1142): 0.05 µg/mL (≈ 0.0417 µM)

deglucoteicoplanin benzyl ester, hydrochloride
pKa value [14]: 6.67

Source: patent US4882419A, “Process for preparing antibiotic L 17392 (deglucoteicoplanin)” (Gruppo Lepetit S.p.A., priority 1984, dated 1989)
